Results reported in publication PMC3541548 (Bioorganic & medicinal chemistry letters, 2012).
Like-named read-outs stand apart in the source and are kept apart here.

Key:
in vitro = details: human, microsomes
Human sEH = target: T1, Human sEH (Homo sapiens, UniProt P34913); assay type: biochemical; details: for fold lower potency against sEH: compared to 2-naphthalene analog 7-38
T1 sequence (P34913 1-555): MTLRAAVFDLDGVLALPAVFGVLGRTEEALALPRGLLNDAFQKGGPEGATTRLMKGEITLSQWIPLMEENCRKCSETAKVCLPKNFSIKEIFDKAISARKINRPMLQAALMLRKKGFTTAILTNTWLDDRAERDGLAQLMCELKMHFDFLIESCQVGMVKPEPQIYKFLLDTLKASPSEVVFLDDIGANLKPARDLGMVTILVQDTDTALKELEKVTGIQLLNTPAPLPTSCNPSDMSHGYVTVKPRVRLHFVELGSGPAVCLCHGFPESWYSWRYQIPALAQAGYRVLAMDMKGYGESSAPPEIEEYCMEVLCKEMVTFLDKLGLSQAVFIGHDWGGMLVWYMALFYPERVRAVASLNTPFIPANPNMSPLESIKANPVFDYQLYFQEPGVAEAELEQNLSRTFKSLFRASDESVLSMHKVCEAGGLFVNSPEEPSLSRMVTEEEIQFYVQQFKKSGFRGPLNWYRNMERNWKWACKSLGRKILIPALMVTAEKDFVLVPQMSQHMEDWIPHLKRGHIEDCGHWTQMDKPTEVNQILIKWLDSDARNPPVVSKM

[1] = compared to phenyl compound 7-12

## Cc1ccc(S(=O)(=O)N2CCC(C(=O)NC3CCCC3)CC2)c(C)c1 [Compound 7-3]
In vitro
  CLint scaled at 1.5 h: 90 mL/min/kg

## Cc1ccc(S(=O)(=O)N2CCC(C(=O)NC34CC5CC(CC(C5)C3)C4)CC2)c(C)c1 [Compound 7-6]
In vitro
  CLint scaled at 1.5 h: 90 mL/min/kg

## Cc1ccc(S(=O)(=O)N2CCC(C(=O)Nc3ccccc3O)CC2)c(C)c1 [Compound 7-9]
In vitro
  CLint scaled at 1.5 h: 520 mL/min/kg

## COC(=O)c1ccc(NC(=O)C2CCN(S(=O)(=O)c3ccc(C)cc3C)CC2)cc1 [Compound 7-11]
In vitro
  CLint scaled at 1.5 h: 340 mL/min/kg

## Cc1ccc(S(=O)(=O)N2CCC(C(=O)Nc3ccc(OC(F)(F)F)cc3)CC2)c(C)c1 [Compound 7-12]
Human sEH; compared to cycloalkyl lead compound 2
  fold drop in potency against the human sEH: 15 fold

## Cc1ccc(S(=O)(=O)N2CCC(C(=O)Nc3ccc(N4CCOCC4)cc3)CC2)c(C)c1 [Compound 7-14]
Human sEH; [1]
  fold decrease in potency: 10 fold

## Cc1ccc(S(=O)(=O)N2CCC(C(=O)Nc3cccc(C(F)(F)F)c3)CC2)c(C)c1 [Compound 7-16]
Human sEH; [1]
  fold decrease in potency: 30 fold

## Cc1ccc(S(=O)(=O)N2CCC(C(=O)Nc3ccc(Cl)c(Cl)c3)CC2)c(C)c1 [Compound 7-19]
Human sEH; [1]
  fold decrease in potency: 2 fold

## Cc1ccc(S(=O)(=O)N2CCC(C(=O)Nc3cccc4cccnc34)CC2)c(C)c1 [Compound 7-20]
In vitro
  CLint scaled at 1.5 h: 120 mL/min/kg

## Cc1ccc(S(=O)(=O)N2CCC(C(=O)Nc3ccc4c(c3)OCO4)CC2)c(C)c1 [Compound 7-23]
Human sEH; [1]
  fold increase in potency (lower IC50): 4 fold
other
  in vitro metabolic stability in human liver microsomes (in words): intermediate metabolic profiles
In vitro
  CLint scaled at 1.5 h: 28 mL/min/kg

## Cc1ccc(S(=O)(=O)N2CCC(C(=O)NC3CC3)CC2)c(C)c1 [Compound 7-24]
other
  in vitro metabolic stability in human liver microsomes (in words): intermediate metabolic profiles
In vitro
  CLint scaled at 1.5 h: 7 mL/min/kg

## Cc1ccc(S(=O)(=O)N2CCC(C(=O)Nc3ccc([N+](=O)[O-])cc3)CC2)c(C)c1 [Compound 7-35]
Human sEH; [1]
  fold increase in potency (lower IC50): 2 fold

## Cc1ccc(S(=O)(=O)N2CCC(C(=O)Nc3ccc(C(C)C)cc3)CC2)c(C)c1 [Compound 7-37]
Human sEH
  fold increase in potency (lower IC50): 3 fold
In vitro
  CLint scaled at 1.5 h: 50 mL/min/kg

## Cc1ccc(S(=O)(=O)N2CCC(C(=O)Nc3ccc(S(=O)(=O)C(F)(F)F)cc3)CC2)c(C)c1 [Compound 7-38]
In vitro
  CLint scaled at 1.5 h: 35 mL/min/kg

## Cc1ccc(S(=O)(=O)N2CCC(C(=O)Nc3ccc(F)cc3)CC2)c(C)c1 [Compound 7-39]
Human sEH
  fold lower potency against sEH: 5 fold

## Cc1ccc(S(=O)(=O)N2CCC(C(=O)Nc3ccc(Br)cc3)CC2)c(C)c1 [Compound 7-40]
Human sEH
  fold lower potency against sEH: 30 fold

## Cc1ccc(S(=O)(=O)N2CCC(C(=O)Nc3ccc(Cl)c(C(F)(F)F)c3)CC2)c(C)c1 [Compound 7-41]
Human sEH
  fold lower potency against sEH: 50 fold

## Cc1ccc(S(=O)(=O)N2CCC(C(=O)Nc3ccc4ccccc4c3)CC2)c(C)c1 [Compound 7-42]
Human sEH
  fold lower potency against sEH: 180 fold
In vitro
  CLint scaled at 1.5 h: 140 mL/min/kg

## Cc1ccc(S(=O)(=O)N2CCC(C(=O)Nc3cccc4cnccc34)CC2)c(C)c1 [Compound 7-44]
Human sEH
  fold lower potency against sEH: 15 fold
In vitro
  CLint scaled at 1.5 h: 5.6 mL/min/kg

## Cc1ccc(S(=O)(=O)N2CCC(C(=O)Nc3ccc4cc(C(=O)O)ccc4c3)CC2)c(C)c1 [Compound 7-45]
In vitro
  CLint scaled at 1.5 h: 35 mL/min/kg
